The values that follow come from patent US8258119B2, “Anti-cancer drugs and uses relating thereto for metastatic malignant melanoma and other cancers” (Kasina Laila Innova Pharmaceuticals, priority 2008, dated 2012).

Structures are written as SMILES.

The subject of data set [1] is B16 F0 mouse melanoma cells. Briefly: Cell cycle analysis by flow cytometry. In kind it is cell-based. To be noted: 24 h, propidium iodide FACS. The method, then:
B16 F0 Cells were treated with the indicated concentrations of either vehicle (0.1% DMSO) or DTIC or Compound 6 for 24 h at different concentrations as indicated. The propidium iodide stained cells were analyzed for the distribution of cell cycle by FACS calibur, and the percentage of distribution at different phases of cell cycle was determined using ModFIT software. Data are shown as one representative of at least three independent experiments.
Cell cycle analysis of Compound 6 and DTIC treated B16F0 cells were analyzed by flow cytometry as described earlier with some modifications (42). Briefly, B16F0 cells were cultivated in DMEM containing 10% fetal bovine serum (FBS) in presence of 4.5 g/l D-glucose. The sub confluent cells were treated with either DTIC or Compound 6 and incubated for 24 h. Cells were harvested and prepared single cell suspension in buffer (PBS+2% FBS). The cells were washed twice with cold PBS and then fixed with cold 70% ethanol for 30 min. Ethanol was removed by centrifugation and the cells were suspended and the cell count was adjusted to 10^6 cells per ml. The cells were washed two times with PBS and then the cells were stained with propidium iodide for 30 min at 37° C. in presence of RNase. Finally, the cells were analyzed on FACS Calibur flow cytometry (BD Biosciences, USA). […]

The next data set deals with B16F0 cells. Briefly: B16F0 mouse melanoma cell invasion assay (Matrigel). It is filed as cell-based. Particulars: 100 μg/ml, 24 h, compared to vehicle or DTIC. As to the method: The inhibitory effects of DTIC and […] on In vitro invasive ability of B16F0 were tested in cell invasion assay performed with by using Matrigel (BME Cultrex®, R&D Systems, USA) coated cell culture inserts (Becton Dickinson, USA) with 8 μm-pore membrane. Equal number (fifty thousands) of B16F0 cells were applied in each insert well and allowed to attach for 2 h at 37° C. and in presence of 5% CO2. Thereafter, the cellular invasion through the matrigel layer was performed in presence or absence of test compounds. Either 100 μg/ml of DTIC or Compound 6 was applied in the lower chamber of the invasion assembly. 0.1% DMSO was applied in the vehicle control culture chambers. After 24 h treatment, the matrigel layer containing cells was removed with cotton plug and the invaded cells on the other side of the membrane were fixed with methanol for 5 min and then stained with Giemsa. The stained membrane was mounted on a glass slide and number invaded cells were counted in 20 random fields (20× objective) under a light microscope (Nikon Eclipse TS 100).

Data set [2] relates to Human umbilical vein endothelial cells (HUVEC). Briefly: Endothelial cell migration assay. In kind it is cell-based. To be noted: 18 h. As to the method:
The methodology of endothelial cell migration assay was essentially the same as described earlier with some modifications (43). FALCON™ Cell Culture inserts (Becton Dickinson, USA) with 8 μm-pores in their PET membrane was coated with 0.1 mg/ml of collagen. Human umbilical vein endothelial cells (HUVEC) were added to the cell culture inserts (Becton Dickinson) at a density of 5×10^4 cells/insert. Cells were allowed to migrate through the insert for 18 h in presence of different concentrations of either DTIC or Compound 6. The control culture containing migration assembly received only 0.1% DMSO. […] The membranes of the inserts were then mounted on glass slides. Cells migrated through the membrane pores were counted in 20 random fields under Nikon Eclipse TS 100 microscope at 20× objective.

The conditions of data set [3]: cited from earlier work.
Setting [4] is: patient with renal and hepatic dysfunctions.

By melting point is commonly meant the temperature, or range, at which the solid turns liquid. Molecule `CN(C)/N=N/c1ccsc1C(=O)O` [Compound 6, 3-[(dimethylamino)diazenyl]thiophene-2-carboxylic acid] showed a melting point of 108 to 110 °C. Moreover, in data set [1], the “effect on cell cycle distribution” value is “induction of cell cycle arrest in G2/M phase”. In addition, in the data set with B16F0 cells, the tumor cell invasion result is “significantly reduced malignant tumor cell invasion”. Also, the endothelial cell migration entry in data set [2] is given as “significant inhibition of migration”.
Take `CN(C)/N=N/c1[nH]cnc1C(N)=O` [DTIC, 5-(3,3-dimethyl-1-trizeno)-imidazole-4-carboxamide, reference compound]: the “average cumulative excretion of unchanged DTIC in the urine” value in data set [3] (in six hours) is 40 % of the injected dose. In data set [3] (setting [4]), the initial half life is 55 min and the terminal half life was 432 min. In addition, in data set [3] (plasma, biphasic), the “initial half life of disappearance from the plasma” value was 19 min and the “terminal half life of disappearance from the plasma” value was “five”.
